Where “and” joins values, the source holds several entries; their conditions need not be identical. Equal entries are not always repeated. Toxic doses and inconclusive results are not listed. Cut-off read from the data, not from the text of the source: active = T/C of 150% or more; inactive = T/C below 125%.
System: L1210 leukemia ip in BDF1 mice, survival T/C
Assay: NCI In Vivo Anticancer Drug Screen. Data for tumor model L1210 Leukemia (intraperitoneal) in B6D2F1 (BDF1) mice
Details: endpoint: mean survival time, higher = longer survival
How it was run: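 Tumor was transplanted into mice, which were then dosed with test compound or vehicle alone. Survival was recorded for each group, and the treated figure was expressed relative to the control figure.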

[1] = dose: 25.0 mg/kg/injection, schedule: Q04DX003 (ip), vehicle: saline
[2] = dose: 50.0 mg/kg/injection, schedule: Q01DX001 (ip), vehicle: saline
[3] = dose: 50.0 mg/kg/injection, schedule: Q04DX003 (ip), vehicle: saline
[4] = dose: 100.0 mg/kg/injection, schedule: Q01DX001 (ip), vehicle: carboxymethylcellulose (CMC)
[5] = dose: 200.0 mg/kg/injection, schedule: Q01DX001 (ip), vehicle: carboxymethylcellulose (CMC)
[6] = dose: 400.0 mg/kg/injection, schedule: Q01DX001 (ip), vehicle: carboxymethylcellulose (CMC)
[7] = dose: 25.0 mg/kg/injection, schedule: Q01DX009 (ip), vehicle: saline
[8] = dose: 50.0 mg/kg/injection, schedule: Q01DX009 (ip), vehicle: saline
[9] = dose: 100.0 mg/kg/injection, schedule: Q04DX003 (ip), vehicle: saline
[10] = dose: 100.0 mg/kg/injection, schedule: Q01DX001 (ip), vehicle: saline
[11] = dose: 200.0 mg/kg/injection, schedule: Q01DX001 (ip), vehicle: saline
[12] = dose: 400.0 mg/kg/injection, schedule: Q01DX001 (ip), vehicle: saline

Measured: T/C

CCCCCCSC(=N)N
inactive: dose: 12.5 mg/kg/injection, schedule: Q01DX001 (ip), vehicle: saline 95 % of control | dose: 12.5 mg/kg/injection, schedule: Q04DX002 (ip), vehicle: saline 94 % of control and 97 % of control | dose: 12.5 mg/kg/injection, schedule: Q04DX003 (ip), vehicle: saline 119 % of control | dose: 25.0 mg/kg/injection, schedule: Q01DX001 (ip), vehicle: saline 100 % of control | dose: 25.0 mg/kg/injection, schedule: Q04DX002 (ip), vehicle: saline 94 % of control and 100 % of control | [1] 104 % of control | [2] 89 % of control | dose: 50.0 mg/kg/injection, schedule: Q04DX002 (ip), vehicle: saline 103 % of control and 106 % of control | [3] 102 % of control

Cc1nn(-c2ccc(Cl)cc2)c(C)c1N=O
inactive: dose: 25.0 mg/kg/injection, schedule: Q01DX001 (ip), vehicle: saline with Tween-80 98 % of control | dose: 50.0 mg/kg/injection, schedule: Q01DX001 (ip), vehicle: saline with Tween-80 95 % of control | dose: 100.0 mg/kg/injection, schedule: Q01DX001 (ip), vehicle: saline with Tween-80 104 % of control

N#CC(NC(N)=O)(c1ccccc1)c1ccccc1
inactive: dose: 50.0 mg/kg/injection, schedule: Q01DX001 (ip), vehicle: carboxymethylcellulose (CMC) 91 % of control | [4] 107 % of control | [5] 96 % of control | [6] 91 % of control

COc1cccc(OC)c1OC(=O)Nc1cccc(C(F)(F)F)c1
inactive: dose: 100.0 mg/kg/injection, schedule: Q01DX009 (ip), vehicle: Klucel (hydroxypropylcellulose) (HPC) 101 % of control | dose: 200.0 mg/kg/injection, schedule: Q01DX009 (ip), vehicle: Klucel (hydroxypropylcellulose) (HPC) 98 % of control | dose: 400.0 mg/kg/injection, schedule: Q01DX009 (ip), vehicle: Klucel (hydroxypropylcellulose) (HPC) 90 % of control

CC(C)N1CN(C(C)C)CN(C(C)C)C1
inactive: [7] 103 % of control | [1] 99 % of control | [8] 93 % of control | [3] 99 % of control | [9] 87 % of control

Cc1ccc(N=C=C(c2ccc(Cl)cc2)c2ccc(Cl)cc2)cc1
inactive: dose: 1.56 mg/kg/injection, schedule: Q01DX009 (ip), vehicle: DMSO 104 % of control | dose: 3.12 mg/kg/injection, schedule: Q01DX009 (ip), vehicle: DMSO 93 % of control | dose: 6.25 mg/kg/injection, schedule: Q01DX009 (ip), vehicle: DMSO 97 % of control and 103 % of control | dose: 12.5 mg/kg/injection, schedule: Q04DX002 (ip), vehicle: DMSO 105 % of control | dose: 25.0 mg/kg/injection, schedule: Q04DX002 (ip), vehicle: DMSO 109 % of control

COC(C(OC(C)=O)C(OC(C)=O)C(OC(C)=O)C(COC(C)=O)OC(C)=O)n1cc(C)c(=O)[nH]c1=O (stereo unspecified)
inactive: [2] 103 % of control | [10] 97 % of control | [11] 95 % of control | [12] 91 % of control

CC(C)(C)SC1CC(=O)OC1=O (stereo unspecified)
inactive: dose: 87.5 mg/kg/injection, schedule: Q04DX003 (ip), vehicle: saline with Tween-80 102 % of control | dose: 175.0 mg/kg/injection, schedule: Q04DX003 (ip), vehicle: saline with Tween-80 106 % of control | dose: 350.0 mg/kg/injection, schedule: Q04DX003 (ip), vehicle: saline with Tween-80 109 % of control

O=C(Nc1ccccc1)C(CCCN1C(=O)c2ccccc2C1=O)N1C(=O)c2ccccc2C1=O (stereo unspecified)
inactive: dose: 75.0 mg/kg/injection, schedule: Q01DX001 (ip), vehicle: saline 100 % of control | dose: 150.0 mg/kg/injection, schedule: Q01DX001 (ip), vehicle: saline 104 % of control | dose: 300.0 mg/kg/injection, schedule: Q01DX001 (ip), vehicle: saline 96 % of control

CCOc1cc(-c2nc(-c3ccc(N=Cc4ccc(N(CCCOS(C)(=O)=O)CCCOS(C)(=O)=O)cc4)cc3)cs2)ccc1OCc1ccccc1
inactive: dose: 100.0 mg/kg/injection, schedule: Q01DX009 (ip), vehicle: saline with Tween-80 92 % of control | dose: 200.0 mg/kg/injection, schedule: Q01DX009 (ip), vehicle: saline with Tween-80 94 % of control | dose: 400.0 mg/kg/injection, schedule: Q01DX009 (ip), vehicle: saline with Tween-80 92 % of control

Cc1ccc(OCC(=O)Nc2ccc3c(c2)C(=O)c2ccccc2C3=O)c(C)c1
inactive: [4] 101 % of control | [5] 98 % of control | [6] 95 % of control

O=C(O)c1cc2ccccc2c2c1ccc1ccccc12
inactive: dose: 50.0 mg/kg/injection, schedule: Q01DX001 (ip), vehicle: Klucel (hydroxypropylcellulose) (HPC) 92 % of control | dose: 100.0 mg/kg/injection, schedule: Q01DX001 (ip), vehicle: Klucel (hydroxypropylcellulose) (HPC) 93 % of control | dose: 200.0 mg/kg/injection, schedule: Q01DX001 (ip), vehicle: Klucel (hydroxypropylcellulose) (HPC) 93 % of control

COc1ccc(NCC(O)CN2CCCCC2)cc1 (stereo unspecified)
inactive: [10] 94 % of control

CCOC(=O)C(C)Oc1ccc([N+](=O)[O-])cc1Cl (stereo unspecified)
inactive: dose: 100.0 mg/kg/injection, schedule: Q01DX009 (ip), vehicle: gum acacia 94 % of control | dose: 200.0 mg/kg/injection, schedule: Q01DX009 (ip), vehicle: gum acacia 99 % of control | dose: 400.0 mg/kg/injection, schedule: Q01DX009 (ip), vehicle: gum acacia 99 % of control

O=c1cc(N2CCOCC2)nc2ccccn12
inactive: [4] 100 % of control | [5] 96 % of control | [6] 102 % of control

FCc1nc2nc(Cl)c(Cl)nc2[nH]1
inactive: dose: 12.5 mg/kg/injection, schedule: Q01DX009 (ip), vehicle: saline 100 % of control | [7] 96 % of control | [8] 88 % of control | [9] 97 % of control | dose: 200.0 mg/kg/injection, schedule: Q04DX003 (ip), vehicle: saline 97 % of control

Oc1ccc(-c2ccc(O)c(O)c2)cc1O
inactive: dose: 75.0 mg/kg/injection, schedule: Q01DX001 (ip), vehicle: carboxymethylcellulose (CMC) 100 % of control | dose: 150.0 mg/kg/injection, schedule: Q01DX001 (ip), vehicle: carboxymethylcellulose (CMC) 95 % of control

O=[N+]([O-])c1c[c]([Hg][Cl])c(O)[c]([Hg][Cl])c1
inactive: dose: 3.13 mg/kg/injection, schedule: Q01DX009 (ip), vehicle: saline with Tween-80 88 % of control | dose: 3.13 mg/kg/injection, schedule: Q04DX002 (ip), vehicle: saline with Tween-80 107 % of control | dose: 3.13 mg/kg/injection, schedule: Q04DX003 (ip), vehicle: saline with Tween-80 88 % of control | dose: 6.25 mg/kg/injection, schedule: Q01DX009 (ip), vehicle: saline with Tween-80 86 % of control | dose: 6.25 mg/kg/injection, schedule: Q04DX002 (ip), vehicle: saline with Tween-80 96 % of control | dose: 6.25 mg/kg/injection, schedule: Q04DX003 (ip), vehicle: saline with Tween-80 97 % of control | dose: 12.5 mg/kg/injection, schedule: Q01DX009 (ip), vehicle: saline with Tween-80 91 % of control | dose: 12.5 mg/kg/injection, schedule: Q04DX002 (ip), vehicle: saline with Tween-80 93 % of control | dose: 12.5 mg/kg/injection, schedule: Q04DX003 (ip), vehicle: saline with Tween-80 87 % of control

O=C(CCCC(=O)N/N=C/c1cccc(I)c1)N/N=C\c1cccc(I)c1
inactive: [2] 100 % of control | [10] 100 % of control | [11] 100 % of control | [12] 97 % of control

O=S(=O)(O)c1cccc(S(=O)(=O)O)c1
inactive: dose: 100.0 mg/kg/injection, schedule: Q01DX009 (ip), vehicle: saline 105 % of control | dose: 200.0 mg/kg/injection, schedule: Q01DX009 (ip), vehicle: saline 103 % of control | dose: 400.0 mg/kg/injection, schedule: Q01DX009 (ip), vehicle: saline 97 % of control

Nc1nc(N)nc(-c2ccccc2N=NNc2ccc([N+](=O)[O-])cc2)n1
inactive: dose: 100.0 mg/kg/injection, schedule: Q04DX002 (ip), vehicle: Klucel (hydroxypropylcellulose) (HPC) 97 % of control | dose: 200.0 mg/kg/injection, schedule: Q04DX002 (ip), vehicle: Klucel (hydroxypropylcellulose) (HPC) 93 % of control | dose: 400.0 mg/kg/injection, schedule: Q04DX002 (ip), vehicle: Klucel (hydroxypropylcellulose) (HPC) 89 % of control
